What is called IC50 is the concentration at which inhibition is half-maximal.

T1 sequence (Q15858 whole entry): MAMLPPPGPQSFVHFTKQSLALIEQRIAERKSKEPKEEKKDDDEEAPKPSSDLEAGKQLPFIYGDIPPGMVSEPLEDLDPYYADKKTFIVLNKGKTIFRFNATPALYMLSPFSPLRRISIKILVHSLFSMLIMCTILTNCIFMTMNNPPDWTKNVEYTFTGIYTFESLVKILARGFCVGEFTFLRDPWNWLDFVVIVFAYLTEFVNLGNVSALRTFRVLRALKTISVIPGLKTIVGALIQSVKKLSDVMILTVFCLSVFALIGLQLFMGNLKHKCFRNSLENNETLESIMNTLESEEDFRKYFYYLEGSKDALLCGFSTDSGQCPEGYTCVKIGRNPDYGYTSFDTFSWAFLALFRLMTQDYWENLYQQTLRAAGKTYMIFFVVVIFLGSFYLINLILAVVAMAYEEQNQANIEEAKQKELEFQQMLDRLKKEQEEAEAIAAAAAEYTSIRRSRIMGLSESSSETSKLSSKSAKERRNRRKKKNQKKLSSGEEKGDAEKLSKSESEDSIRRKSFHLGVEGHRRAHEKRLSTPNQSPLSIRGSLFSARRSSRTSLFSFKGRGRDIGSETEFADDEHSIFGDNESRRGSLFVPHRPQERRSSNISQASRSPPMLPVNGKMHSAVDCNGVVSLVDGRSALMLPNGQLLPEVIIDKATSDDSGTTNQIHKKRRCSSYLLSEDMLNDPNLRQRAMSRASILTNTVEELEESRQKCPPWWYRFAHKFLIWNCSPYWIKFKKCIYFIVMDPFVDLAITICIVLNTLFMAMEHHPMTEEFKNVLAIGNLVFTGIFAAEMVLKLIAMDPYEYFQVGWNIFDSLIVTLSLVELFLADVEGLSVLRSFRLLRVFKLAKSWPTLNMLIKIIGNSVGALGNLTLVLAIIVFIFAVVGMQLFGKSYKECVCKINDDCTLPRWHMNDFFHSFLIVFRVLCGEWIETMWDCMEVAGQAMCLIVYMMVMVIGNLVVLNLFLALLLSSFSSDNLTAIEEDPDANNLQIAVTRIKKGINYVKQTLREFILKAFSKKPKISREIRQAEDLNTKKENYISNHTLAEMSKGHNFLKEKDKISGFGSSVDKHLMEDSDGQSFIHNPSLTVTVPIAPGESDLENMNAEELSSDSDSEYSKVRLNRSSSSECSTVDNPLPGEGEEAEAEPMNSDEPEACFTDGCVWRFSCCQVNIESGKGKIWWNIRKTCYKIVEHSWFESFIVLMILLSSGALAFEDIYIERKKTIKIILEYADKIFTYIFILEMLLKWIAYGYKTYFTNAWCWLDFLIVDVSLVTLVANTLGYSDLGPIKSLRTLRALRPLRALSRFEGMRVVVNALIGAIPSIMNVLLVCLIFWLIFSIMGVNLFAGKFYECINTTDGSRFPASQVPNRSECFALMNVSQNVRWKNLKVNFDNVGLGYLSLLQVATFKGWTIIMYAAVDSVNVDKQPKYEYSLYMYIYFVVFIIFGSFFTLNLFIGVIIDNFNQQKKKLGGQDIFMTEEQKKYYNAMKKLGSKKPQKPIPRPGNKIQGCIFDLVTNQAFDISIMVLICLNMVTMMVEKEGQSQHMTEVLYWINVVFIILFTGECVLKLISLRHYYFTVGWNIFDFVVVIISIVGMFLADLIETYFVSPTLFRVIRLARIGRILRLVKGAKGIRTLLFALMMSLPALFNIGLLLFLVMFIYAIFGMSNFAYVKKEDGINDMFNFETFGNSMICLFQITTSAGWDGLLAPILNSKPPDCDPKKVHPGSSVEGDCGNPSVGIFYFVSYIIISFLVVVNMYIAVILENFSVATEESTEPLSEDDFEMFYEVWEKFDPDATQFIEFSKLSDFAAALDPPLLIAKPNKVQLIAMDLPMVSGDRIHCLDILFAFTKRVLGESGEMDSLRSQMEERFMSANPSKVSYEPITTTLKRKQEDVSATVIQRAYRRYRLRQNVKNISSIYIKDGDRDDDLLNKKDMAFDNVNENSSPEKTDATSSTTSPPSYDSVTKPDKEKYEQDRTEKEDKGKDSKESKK

The first assay concerns the target T1, Nav1.7 (or SCN9A) channel; HEK cells stably transfected with hSCN9A (Homo sapiens, UniProt Q15858).
T1 construct: expressed in transfected cells
The experiment in a line: Nav1.7 block, PatchXpress 7000 automated whole-cell voltage clamp, estimated IC50 (EIC50). Type of assay: cell-based. The note with it: PatchXpress platform; hSCN9A HEK cells held at V1/2 of inactivation; estimated IC50.
`Cc1ccnn1-c1cc(F)ccc1Oc1ccc(S(=O)(=O)Nc2nccs2)cc1C#N` [Example 176, 3-cyano-4-(4-fluoro-2-(5-methyl-1H-pyrazol-1-yl)phenoxy)-N-(thiazol-2-yl)benzenesulfonamide]: the IC50 was 8870 nM.

Take `O=S(=O)(Nc1nccs1)c1ccc(Oc2ccc(-c3cocn3)cc2)c(F)c1` [Example 121, 3-fluoro-4-[4-(1,3-oxazol-4-yl)phenoxy]-N-1,3-thiazol-2-ylbenzenesulfonamide]: the IC50 is 32300 nM.

On to `CC(C)(C)n1nccc1-c1c(Cl)cccc1Oc1ccc(S(=O)(=O)Nc2nccs2)cc1C#N` [Example 198, 4-[2-(2-tert-butyl-2H-pyrazol-3-yl)-3-chloro-phenoxy]-3-cyano-N-thiazol-2-yl-benzenesulfonamide], for which the IC50 was 2470 nM.

Take `Cc1cc(Oc2ccc(S(=O)(=O)Nc3ncc(Cl)s3)cc2C#N)n(C2CCCCC2)n1` [Example 143, N-(5-chloro-1,3-thiazol-2-yl)-3-cyano-4-[(1-cyclohexyl-3-methyl-1H-pyrazol-5-yl)oxy]benzenesulfonamide]: the half-inhibitory concentration (IC50) is above 10000 nM.

As for `N#Cc1cc(S(=O)(=O)Nc2nccs2)ccc1Oc1ccc(Cl)cc1-c1ccccn1` [Example 164, 4-(4-chloro-2-pyridin-2-ylphenoxy)-3-cyano-N-1,3-thiazol-2-ylbenzenesulfonamide], the IC50 was 580 nM.

Take `Cc1nccn1-c1cc(Cl)ccc1Oc1ccc(S(=O)(=O)Nc2nccs2)cc1C#N` [Example 159, 4-[4-chloro-2-(2-methyl-1H-imidazol-1-yl)phenoxy]-3-cyano-N-1,3-thiazol-2-ylbenzenesulfonamide]: the IC50 was 80 nM.

As for `CC(C)Oc1ccc(-c2cc(F)ccc2Oc2ccc(S(=O)(=O)Nc3nccs3)cc2C#N)cc1` [Example 157, 3-cyano-4-[(5-fluoro-4′-isopropoxybiphenyl-2-yl)oxy]-N-1,3-thiazol-2-ylbenzenesulfonamide], the IC50 is 450 nM.

Regarding `CC(C)(C)n1nccc1-c1c(F)cccc1Oc1ccc(S(=O)(=O)Nc2ncns2)cc1C#N` [Example 83, 4-[2-(1-tert-butyl-1H-pyrazol-5-yl)-3-fluorophenoxy]-3-cyano-N-1,2,4-thiadiazol-5-ylbenzenesulfonamide], the IC50 was 2450 nM.

With `N#Cc1cc(S(=O)(=O)Nc2ccon2)ccc1Oc1ccccc1-c1ccccc1` [Example 110, 4-(biphenyl-2-yloxy)-3-cyano-N-isoxazol-3-ylbenzenesulfonamide], the IC50 is 4270 nM.

As for `CCc1ccc(Oc2ccc(S(=O)(=O)Nc3ncns3)cc2C#N)c(-c2ccccc2)n1` [Example 19, 3-cyano-4-[(6-ethyl-2-phenylpyridin-3-yl)oxy]-N-1,2,4-thiadiazol-5-ylbenzenesulfonamide], the IC50 is 720 nM.

Consider `CN(C)c1ncc(Oc2ccc(S(=O)(=O)Nc3ncns3)cc2C#N)c(-c2ccccc2F)n1` [Example 14, 3-cyano-4-{[2-(dimethylamino)-4-(2-fluorophenyl)pyrimidin-5-yl]oxy}-N-1,2,4-thiadiazol-5-ylbenzenesulfonamide], for which the IC50 was 4300 nM.

`N#Cc1cc(S(=O)(=O)Nc2ncns2)ccc1Oc1cc(C(F)(F)F)nn1-c1ccccc1` [Example 81, 3-cyano-4-{[1-phenyl-3-(trifluoromethyl)-1H-pyrazol-5-yl]oxy}-N-1,2,4-thiadiazol-5-ylbenzenesulfonamide]: the IC50 is 510 nM.

For `Cc1c(Cl)ccc(Oc2ccc(S(=O)(=O)Nc3nccs3)cc2F)c1-c1nnco1` [Example 244, 4-(4-chloro-3-methyl-2-[1,3,4]oxadiazol-2-yl-phenoxy)-3-fluoro-N-thiazol-2-yl-benzenesulfonamide], the IC50 is 1790 nM.

Still in this assay, the particulars now being: estimated IC50; hSCN9A HEK cells, PatchXpress platform; Examples 283-814.
Consider `Cn1nccc1-c1cc(Br)ccc1Oc1ccc(S(=O)(=O)Nc2ncns2)cc1C#N` [Example 501, 4-[4-bromo-2-(1-methyl-1H-pyrazol-5-yl)phenoxy]-3-cyano-N-1,2,4-thiadiazol-5-ylbenzenesulfonamide], for which the IC50 was 40 nM.

In the case of `CCn1nc(C(F)(F)F)cc1-c1ccc(Oc2ccc(S(=O)(=O)Nc3ccon3)cc2C#N)cc1` [Example 337, 3-cyano-4-{4-[1-ethyl-3-(trifluoromethyl)-1H-pyrazol-5-yl]phenoxy}-N-isoxazol-3-ylbenzenesulfonamide], the IC50 is 2500 nM.

Turning to `Cn1nccc1-c1ccc(Oc2ccc(S(=O)(=O)Nc3nccs3)cc2C#N)cc1` [Example 436, 3-cyano-4-[4-(1-methyl-1H-pyrazol-5-yl)phenoxy]-N-1,3-thiazol-2-ylbenzenesulfonamide], the IC50 was 1300 nM.

Take `CCn1nc(C(F)(F)F)cc1-c1ccc(Oc2ccc(S(=O)(=O)Nc3ccc(C(F)(F)F)cn3)cc2C#N)cc1` [Example 340, 3-cyano-4-{4-[1-ethyl-3-(trifluoromethyl)-1H-pyrazol-5-yl]phenoxy}-N-[5-(trifluoromethyl)pyridin-2-yl]benzenesulfonamide]: the IC50 was 34000 nM.

Consider `CC(C)C1CN(c2ccc(Oc3ccc(S(=O)(=O)Nc4nccs4)cc3C#N)cc2)C(=O)N1` (stereo not shown) [Example 485, 3-cyano-4-[4-(4-isopropyl-2-oxoimidazolidin-1-yl)phenoxy]-N-1,3-thiazol-2-ylbenzenesulfonamide], for which the IC50 is above 1000 nM.

In the case of `Cn1nccc1-c1cc(Cl)ccc1Oc1ccc(S(=O)(=O)Nc2cscn2)c(F)c1` [Example 681, 4-[4-chloro-2-(1-methyl-1H-pyrazol-5-yl)phenoxy]-2-fluoro-N-1,3-thiazol-4-ylbenzenesulfonamide], the IC50 was 1200 nM.

On to `CCn1nc(C(F)(F)F)cc1-c1ccc(Oc2ccc(S(=O)(=O)Nc3cc(C#N)ccn3)cc2C#N)cc1` [Example 342, 3-cyano-N-(4-cyanopyridin-2-yl)-4-{4-[1-ethyl-3-(trifluoromethyl)-1H-pyrazol-5-yl]phenoxy}benzenesulfonamide], for which the IC50 was 18000 nM.

For `N#Cc1cc(S(=O)(=O)Nc2cscn2)ccc1Oc1ccc(C(F)(F)F)cc1-c1cn[nH]c1` [Example 598, 3-cyano-4-[2-(1H-pyrazol-4-yl)-4-(trifluoromethyl)phenoxy]-N-1,3-thiazol-4-ylbenzenesulfonamide], the IC50 is 230 nM.

Consider `N#Cc1cc(S(=O)(=O)Nc2cscn2)ccc1Oc1ccc(F)cc1-c1cnn(CC(F)(F)F)c1` [Example 415, 4-{4-fluoro-2-[1-(2,2,2-trifluoroethyl)-1H-pyrazol-4-yl]phenoxy}-3-cyano-N-1,3-thiazol-4-ylbenzenesulfonamide], for which the IC50 is above 1000 nM.

With `CCn1nc(C(F)(F)F)cc1-c1ccc(Oc2ccc(S(=O)(=O)Nc3cnsn3)cc2C#N)cc1` [Example 341, 3-cyano-4-{4-[1-ethyl-3-(trifluoromethyl)-1H-pyrazol-5-yl]phenoxy}-N-1,2,5-thiadiazol-3-ylbenzenesulfonamide], the IC50 is 3600 nM.

For `N#Cc1cc(S(=O)(=O)Nc2nccs2)ccc1Oc1ccc(-n2ccc(C(F)(F)F)n2)c(F)c1` [Example 381, 3-cyano-4-{3-fluoro-4-[3-(trifluoromethyl)-1H-pyrazol-1-yl]phenoxy}-N-1,3-thiazol-2-ylbenzenesulfonamide], the IC50 is 470 nM.

As to `N#Cc1cc(S(=O)(=O)Nc2nccs2)ccc1Oc1ccc(Cl)cc1-c1cnn[nH]1` [Example 694, 4-[4-chloro-2-(1H-1,2,3-triazol-5-yl)phenoxy]-3-cyano-N-1,3-thiazol-2-ylbenzenesulfonamide], the IC50 is 480 nM.

With `CC(=O)c1cccc(-c2cc(Cl)ccc2Oc2ccc(S(=O)(=O)Nc3ncns3)cc2C#N)c1` [Example 504, 4-[(3′-acetyl-5-chlorobiphenyl-2-yl)oxy]-3-cyano-N-1,2,4-thiadiazol-5-ylbenzenesulfonamide], the IC50 was 4.9 nM.

Take `CC(C)(C)n1ccc(Cc2cccc(Oc3ccc(S(=O)(=O)Nc4cscn4)cc3C#N)c2)n1` [Example 769, 4-{3-[(1-tert-butyl-1H-pyrazol-3-yl)methyl]phenoxy}-3-cyano-N-1,3-thiazol-4-ylbenzenesulfonamide]: the IC50 is 8700 nM.

Staying with this assay, now noted: estimated IC50; hSCN9A HEK cells, PatchXpress platform; Examples 815-1040.
For the molecule `O=S(=O)(Nc1cscn1)c1cc(F)c(Oc2ccc(Cl)cc2-c2ccnc(CN3CCC3)c2)cc1F` [Example 1032, 4-{2-[2-(Azetidin-1-ylmethyl)pyridin-4-yl]-4-chlorophenoxy}-2,5-difluoro-N-1,3-thiazol-4-ylbenzenesulfonamide], the IC50 is 13 nM.

For the molecule `O=S(=O)(Nc1ncns1)c1cc(F)c(Oc2ccc(F)cc2-c2ccnnc2)cc1F` [Example 931, 2,5-difluoro-4-(4-fluoro-2-pyridazin-4-ylphenoxy)-N-1,2,4-thiadiazol-5-ylbenzenesulfonamide], the IC50 is 140 nM.

`CN1CC(n2nccc2-c2cc(Cl)ccc2Oc2cc(F)c(S(=O)(=O)Nc3ncccn3)cc2Cl)C1` [Example 1012, 5-chloro-4-{4-chloro-2-[1-(1-methylazetidin-3-yl)-1H-pyrazol-5-yl]phenoxy}-2-fluoro-N-pyrimidin-2-ylbenzenesulfonamide]: the IC50 is 270 nM.

On to `Nc1n[nH]cc1-c1cc(Cl)ccc1Oc1cc(F)c(S(=O)(=O)Nc2ccncn2)cc1Cl` [Example 1036, 4-[2-(3-amino-1H-pyrazol-4-yl)-4-chlorophenoxy]-5-chloro-2-fluoro-N-pyrimidin-4-ylbenzenesulfonamide], for which the half-inhibitory concentration (IC50) is 21 nM.

With `O=S(=O)(Nc1ncns1)c1cc(F)c(Oc2ccc(C(F)(F)F)cc2-c2ccc(Cl)nn2)cc1F` [Example 904, 4-[2-(6-chloropyridazin-3-yl)-4-(trifluoromethyl)phenoxy]-2,5-difluoro-N-1,2,4-thiadiazol-5-ylbenzenesulfonamide], the IC50 is 390 nM.

Turning to `Nc1cc(-c2cc(Cl)ccc2Oc2ccc(S(=O)(=O)Nc3ccncn3)cc2Cl)ccn1` [Example 944, 4-[2-(2-aminopyridin-4-yl)-4-chlorophenoxy]-3-chloro-N-pyrimidin-4-ylbenzenesulfonamide], the IC50 was 31 nM.

For `O=C(c1cccc(-c2cc(Cl)ccc2Oc2cc(F)c(S(=O)(=O)Nc3ncns3)cc2Cl)c1)N1CC(O)C1` [Example 824, 5-chloro-4-({5-chloro-3′-[(3-hydroxyazetidin-1-yl)carbonyl]biphenyl-2-yl}oxy)-2-fluoro-N-1,2,4-thiadiazol-5-ylbenzenesulfonamide], the IC50 was 4.7 nM.

The values are drawn from patent publication US8541588B2, “Sulfonamide derivatives” (Pfizer Limited, priority 2009, dated 2013).
